According to US20160095842A1 (priority 2013, published 2016):
Values joined by “and” are separate entries in the source; they are usually repeats but may differ in a detail not shown here. Identical values can stand only once. “Also recorded” adds a separate entry of the source.

Tests used:
[1] = tested on: RT112 urinary bladder carcinoma; experiment: Antitumor activity against s.c. RT112 tumors in nude mice; format: in vivo, female Hsd: Athymic Nude-nu mice; conditions: for Mean change of tumor volume / Final Tumor Volume: Clarke 1997 analysis table; for Final Tumor Volume: end of 14 days treatment, in mm³ (unit assumed)
Description: Animals: Experiments are performed in female Hsd: Athymic Nude-nu mice obtained from Harlan Cpb, Germany. Animals are from 8 to 14 weeks of age at treatment start and are housed under Optimized Hygienic Conditions in Makrolon type III cages (max. 10 animals per cage) with free access to food and water
Establishment of RT112 tumors: The RT112 human urinary bladder carcinoma cell line was initially derived from a patient with untreated primary urinary bladder carcinoma in 1973. RT112 cells are cultured as in Example 1. To establish tumors, RT112 cells suspended in Hanks' balanced salt solution (HBSS) containing 50% Matrigel (BD #356234) are injected subcutaneously into the right flank. A total of 5×10^6 cells in 100 μl are injected per animal.
Evaluation of antitumor activity: Treatments are initiated when the mean tumor volumes were approximately 180 mm^3 (14 days post tumor cells injection). Body weights and tumor volumes are recorded twice a week. Tumor volumes are measured with calipers and determined according to the formula length×diameter^2×π/6. In addition to presenting changes of tumor volumes over the course of treatments, antitumor activity is expressed as T/C % (mean change of tumor volume of treated animals/mean change of tumor volume of control animals)×100. Regressions (%) are calculated according to the formula ((mean tumor volume at end of treatment-mean tumor volume at start of treatment)/mean tumor volume at start of treatment)×100.
Preparation of Compound Solutions: Vehicle control is prepared by mixing 250 μl 1-methyl-2-pyrrolidone (“NMP”)(Fluka #69118), 750 μl Polyethylene glycol 300 (“PEG300”)(Fluka, #81162), 500 μl Solutol HS15 (BASF, #51633963) and 1000 μl water.
Statistics: For all tests, the level of significance is set at p<0.05. For tumor volumes, comparisons between treatment groups and vehicle control group are done using one-way ANOVA followed by Dunnett's test. The level of significance of body weight change within a group between the start and the end of the treatment period is determined using a paired t-test. Comparisons of delta body weighs between treatment and vehicle control groups are performed by a one-way ANOVA followed by a post hoc Dunnett's test. Calculations are performed using GraphPad Prism 6 for Windows (GraphPad Software Inc.).
Estimation of drug-drug interaction: an approximation of drug interactions is made using the method described by Clarke R., “Issues in experimental design and endpoint analysis in the study of experimental cytotoxic agents in vivo in breast cancer and other models”, Breast Cancer Res. Treat., 46, 255-78 (1997) (“Clark 1997”). This is applied to ΔTV (Mean tumor volume at the end of the treatment period—mean tumor volume at the beginning of the treatment period).
Upon performance of the foregoing experiment, the results are summarized in the table below: Ten millions RT-112 cells are injected subcutaneously into the right flank of female athymic nude mice on Day 0. On day 14, tumors are measured and mice are randomized into treatment groups with 8 mice per group. […] Statistics on Δ tumor volumes are performed with a one-way ANOVA, post hoc Dunnett's (*p<0.05 vs. vehicle controls) to compare treatment groups against the vehicle control group. For body weights, paired t tests between the weights at the beginning and the end of the treatment period are performed (*p<0.05).
A compound interaction analysis with the method described by Clarke 1997 is conducted. In accordance with this method, the experimental data is interpreted as follows: antagonism is predicted when the calculation AB/C>B/C×A/C, additive interaction is predicted when the calculation AB/C=B/C×A/C, and synergistic when AB/C<B/C×A/C.

[2] = tested on: FGFR kinase receptors 1-4 (FGFR1, FGFR2, FGFR3, and FGFR4); conditions: cited from earlier work
pErk1/2 (pMAPK) = experiment: Immunohistochemistry of RT112 tumors: pErk1/2 (pMAPK); format: in vivo, female Hsd: Athymic Nude-nu mice; conditions: 7 days, Compound A 50 mg/kg, Compound B 10 mg/kg, 2 hours after last treatment
Description: (§1) Animals: Experiments are performed in female Hsd: Athymic Nude-nu mice obtained from Harlan Cpb, Germany. Animals are from 8 to 14 weeks of age at treatment start and housed under Optimized Hygienic Conditions in Makrolon type III cages (max. 10 animals per cage) with free access to food and water
(§2) Establishment of RT112 tumors and compound treatments: The RT112 human urinary bladder carcinoma cell line was initially derived from a patient with untreated primary urinary bladder carcinoma in 1973 (Marshall et al. 1977, Masters et al. 1986). RT112 cells are cultured as in Example 1. Tumor establishment is done as in Example 2. Treatments are initiated when the mean tumor volumes are approximately 240 mm^3 (20 days post tumor cells injection).
(§3) Dissection: 2 hours after the last treatment animals are anaesthetized by Forene inhalation narcosis and euthanized by cervical dislocation. Each tumor is dissected, is cut into two equal pieces and is processed for formalin-fixed paraffin embedded sectioning. […]
(§4) Slides are mounted on a Ventana Discovery XT immunostainer and are processed for automated IHC by using a ChromoMAP kit and an OmniMAP anti Rabbit polymer-based amplification system. […] Endogenous peroxidase activities were subsequently quenched by using the ready to use solution from the ChromoMAP kit. […]

pAKT (AKTpS473) = experiment: Immunohistochemistry of RT112 tumors: pAKT; format: in vivo, female Hsd: Athymic Nude-nu mice; conditions: 7 days, Compound A 50 mg/kg, Compound B 10 mg/kg, 2 hours after last treatment
Description: as §1, §2, §3, §4

[3] = Compound A 50 mg/kg, Compound B 10 mg/kg, p.o., q24 h, 14 days

| SMILES | T/C (%) (change in tumor volume, treated vs vehicle) ([1]; 10 mg/kg p.o. q24 h, 14 days, non-statistically significant) | Mean change of tumor volume [1] | Survival (survivors/total) [1, 3] | T/C (%) [1, 3] [%] | Mean change of tumor volume (mm^3 ± SEM) ([1]; Compound A 50 mg/kg, Compound B 10 mg/kg, p.o., q24 h, 14 days, *p<0.05 vs vehicle) [mm^3] | ratio to vehicle control (B/C, A/C, AB/C) ([1]; based on Final Tumor Volume) | ratio to vehicle control (B/C, A/C, AB/C) ([1]; based on Mean change of tumor volume) | Final Tumor Volume [1] | selectivity for FGFR kinase receptors 1-4 [2] | inhibition of pErk1/2 (pMAPK) (immunohistochemistry) (pErk1/2 (pMAPK)) | % change of body weight [1, 3] [%] | Regression (%) [1, 3] | Mean change of body weight (g ± SEM) ([1]; Compound A 50 mg/kg, Compound B 10 mg/kg, p.o., q24 h, 14 days, *p<0.05 paired t test) [g] | inhibition of pAKT (immunohistochemistry) (pAKT (AKTpS473)) |
| --- | --- | --- | --- | --- | --- | --- | --- | --- | --- | --- | --- | --- | --- | --- |
| CCN1CCN(c2ccc(Nc3cc(N(C)C(=O)Nc4c(Cl)c(OC)cc(OC)c4Cl)ncn3)cc2)CC1 [Compound B, 3-(2,6-dichloro-3,5-dimethoxy-phenyl)-1-{6-[4-(4-ethylpiperazin-1-l)-phenylamino]-pyrimidin-4-yl}-1-methyl-urea] | 54.4 | 145.6 | 8/8 | 54.4 | 145.6 ± 66.5 | 0.728 | 0.544 | 327.2 | highly selective | strongly inhibits; also recorded: significantly inhibits | – | – | – | – |
| Cc1nc(NC(=O)N2CCC[C@H]2C(N)=O)sc1-c1ccnc(C(C)(C)C(F)(F)F)c1 [Compound A, (S)-Pyrrolidine-1,2-dicarboxylic acid 2-amide 1-({4-methyl-5-[2-(2,2,2-trifluoro-1,1-dimethyl-ethyl)-pyridin-4-yl]-thiazol-2-yl}-amide)] | – | −2 | 8/8 | – | – | – | – | 179.4 | – | – | −0.8 | 1.1% and −1.1% | -0.2 ± 0.4 | strongly inhibits; also recorded: significantly inhibits |
